# Reference: PMC9317861, “In Vitro Assessment of Pesticides Toxicity and Data Correlation with Pesticides Physicochemical Properties for Prediction of Toxicity in Gastrointestinal and Skin Contact Exposure” (Toxics, 2022)
# Like-named read-outs stand apart in the source and are kept apart here.
# How the values were obtained:
# Caco-2 cells [1] = assay: Alamar Blue cell viability/cytotoxicity assay, Caco-2; type: cell-based, human; settings: for IC50: Homo sapiens; for cell viability reduction: Caco-2, 300 µM
# Method: (§1) Cells were grown, in T25 culture flasks, to near confluence.
# (§2) Near confluence, all cell lines, except RAW 264.7 cells, were subjected to enzymatic treatment (trypsin-EDTA) for detachment and subculture, as described by Andreani et al. and by Silva et al., which was stopped using complete culture medium (1:1, trypsin:culture media) as soon as cells were detached. RAW 264.7 cells were scratched off from the culture flasks using a cell scratcher (Orange Scientific; Braine-L’Alleud, Belgium), handling was performed, as described by Silva et al.. Once detached from the flasks, cells were gently separated and re-suspended using a Pasteur pipette, counted using an automated cell counter (TC10™, BIORAD, Lisbon, Portugal). Then, cells were re-suspended in fresh culture media (at 5 × 10^4 cells/mL) and seeded into 96-well microplates (100 µL/well) which were maintained in an incubator, for 48 h (to adhere and stabilize) before being used. For other details, see [24, 25].
# (§3) Alamar Blue® (AB) assay was performed to assess the in vitro effect of the pesticides on cell viability. In summary, cells seeded into 96-well microplates were treated with various concentrations of the pesticides (GLY: 0–1 mM; IMD: 0–1 mM; IMZ: 0–0.3 mM). Test solutions were prepared in FBS-free culture media by diluting the appropriate volume of respective stock solution. A stock solution of GLY was prepared in water (at 40 mM), and stock solutions of IMD and IMZ were prepared in DMSO (at 20 mM). After 24 h or 48 h of exposure, the test solutions were removed and immediately replaced with Alamar Blue solution (100 µL/well; 10% (v/v) in FBS-free medium), followed by an additional 5 h incubation. Then, absorbance was read at 570 and 620 nm using a microplate reader (Multiskan EX; MTX Lab Systems, Inc., Bradenton, FL, USA), and the percentage of AB reduction was calculated according to manufacturers’ instructions, as described. Cell viability was calculated and expressed as percentage of control cells (non-exposed cells).
# SK-MEL-2 = test system: SK-MEL-2; parameters: method as in PMID 23535362; settings: SK-MEL-2, 72 h exposure; cited from earlier work
# [2] = test system: Caco-2, HepG2, A431, HaCaT, SK-MEL-5 and RAW 264.7 cells; assay: Alamar Blue cell viability, all tested cell lines; type: cell-based; settings: up to 1 mM (highest tested concentration)
# Text: To assess the cytotoxic activity of GLY, IMD and IMZ, six cell lines, namely Caco-2 (human epithelial colorectal adenocarcinoma; Cell Lines Service (CLS), Eppelheim, Germany), HepG2 (human hepatocellular carcinoma; ATCC, Rockville, USA), A431 (human epidermoid carcinoma; CLS, Eppelheim, Germany), HaCaT (human keratinocytes, CLS, Eppelheim, Germany), SK-MEL-5 (human skin melanoma; CLS, Eppelheim, Germany), and RAW 264.7 (mouse macrophages, Abelson murine leukaemia virus-induced tumour; CLS, Eppelheim, Germany) cells, were used. […]
# Near confluence, all cell lines, except RAW 264.7 cells, were subjected to enzymatic treatment (trypsin-EDTA) for detachment and subculture, as described by Andreani et al. and by Silva et al., which was stopped using complete culture medium (1:1, trypsin:culture media) as soon as cells were detached. […] Once detached from the flasks, cells were gently separated and re-suspended using a Pasteur pipette, counted using an automated cell counter (TC10™, BIORAD, Lisbon, Portugal). […]
# Alamar Blue® (AB) assay was performed to assess the in vitro effect of the pesticides on cell viability. […] Then, absorbance was read at 570 and 620 nm using a microplate reader (Multiskan EX; MTX Lab Systems, Inc., Bradenton, FL, USA), and the percentage of AB reduction was calculated according to manufacturers’ instructions, as described. […]
# HaCaT cells [3] = settings: cited from earlier work
# RAW 264.7 cells = assay: Alamar Blue cell viability/cytotoxicity assay, RAW 264.7; type: cell-based; settings: Mus musculus
# Text: (§4) To assess the cytotoxic activity of GLY, IMD and IMZ, six cell lines, namely Caco-2 (human epithelial colorectal adenocarcinoma; Cell Lines Service (CLS), Eppelheim, Germany), HepG2 (human hepatocellular carcinoma; ATCC, Rockville, USA), A431 (human epidermoid carcinoma; CLS, Eppelheim, Germany), HaCaT (human keratinocytes, CLS, Eppelheim, Germany), SK-MEL-5 (human skin melanoma; CLS, Eppelheim, Germany), and RAW 264.7 (mouse macrophages, Abelson murine leukaemia virus-induced tumour; CLS, Eppelheim, Germany) cells, were used. All cell lines were cultured in complete culture media, composed of Dulbecco’s Modified Eagle Media (DMEM), supplemented with 1 mM L-glutamine, 10% (v/v) foetal bovine serum (FBS), and antibiotics (penicillin at 100 U/mL, and streptomycin at 100 μg/mL) and maintained in an incubator (5% CO2/95% air; 37 °C, controlled humidity). Cells were grown, in T25 culture flasks, to near confluence.
# as §2, §3
# A431 cells = assay: Alamar Blue cell viability/cytotoxicity assay, A431; type: cell-based; settings: Homo sapiens
# Text: as §4, §2, §3
# Caco-2 cells [4] = settings: cited from earlier work; for IC50: Caco-2, 24 h
# HepG2 cells [5] = settings: cited from earlier work
# HepG2 cells [6] = assay: Alamar Blue cell viability/cytotoxicity assay, HepG2; type: cell-based, human; settings: for IC50: Homo sapiens
# Text: as §4, §2, §3
# SK-MEL-5 cells = assay: Alamar Blue cell viability/cytotoxicity assay, SK-MEL-5; type: cell-based, human; settings: for IC50: Homo sapiens
# Method: as §1, §2, §3
# [7] = cited from earlier work
# HaCaT cells [8] = assay: Alamar Blue cell viability/cytotoxicity assay, HaCaT; type: cell-based; settings: Homo sapiens
# Text: as §4, §2, §3
# [9] = Figure 4A; cited from earlier work
# [10] = cited from earlier work; remark: listed apart in the source
# [11] = Alamar Blue cell viability/cytotoxicity assay, Caco-2; type: cell-based, human; settings: human, 48 h
# Method: as §1, §2, §3
# [12] = n-octanol/water; Pubchem and INCHEM; cited from earlier work
# CYP3A4 = test system: CYP3A4; parameters: method as in PMID 19070657; settings: cited from earlier work
# [13] = Alamar Blue cell viability/cytotoxicity assay, SK-MEL-5; type: cell-based, human; settings: human; SK-MEL-5, 50 µM, 48 h
# Method: as §1, §2, §3
compound,measurement,setting,value
"O=C(O)CNCP(=O)(O)O [Glyphosate, N-phosphonomethyl-glycine]",effect on cell viability,"Caco-2 cells [1]; Caco-2, concentrations up to 1 mM, 24 h or 48 h",no significant reduction in cell viability
same,IC50,"Caco-2 cells [1]; Caco-2, 24 h",> 1000 µM
same,IC50,"Caco-2 cells [1]; Caco-2, 48 h",> 1000 µM
same,IC50,SK-MEL-2,11 µM
same,effect on cell viability,[2],did not reduce cell viability
same,effect on cell viability,[2]; listed as GLY,not able to induce cell death below 50%
same,IC50,HaCaT cells [3]; 18 h exposure,30000 µM
same,IC50,"RAW 264.7 cells; RAW264.7, 24 h",> 1000 µM
same,IC50,"RAW 264.7 cells; RAW264.7, 48 h",> 1000 µM
same,IC50,"A431 cells; A-431, 24 h",> 1000 µM
same,IC50,"A431 cells; A-431, 48 h",> 1000 µM
same,concentrations that disrupted Caco-2 monolayers (loss of membrane integrity),Caco-2 cells [4]; conversion of mg/mL value,> 59000 µM
same,concentrations that disrupted Caco-2 monolayers (loss of membrane integrity),Caco-2 cells [4],higher than 10 mg/mL
same,effect on cell proliferation,"HepG2 cells [5]; HepG2, up to 3.5 µg/mL (20.7 µM), 4 h and 24 h",slight increase in cell proliferation
same,effect on cells,"HepG2 cells [6]; HepG2, concentrations up to 1 mM",not affected
same,IC50,"HepG2 cells [6]; HepG2, 24 h",> 1000 µM
same,IC50,"HepG2 cells [6]; HepG2, 48 h",> 1000 µM
same,IC50,"SK-MEL-5 cells; SK-MEL-5, 24 h",> 1000 µM
same,IC50,"SK-MEL-5 cells; SK-MEL-5, 48 h",> 1000 µM
same,reduction in cell viability,"SK-MEL-5 cells; SK-MEL-5, 1 mM, 24 h",23.3%
same,reduction in cell viability,"SK-MEL-5 cells; SK-MEL-5, 1 mM, 48 h",18.7%
same,solubility in organic solvents,[7],very low solubility in organic solvents
same,IC50,HaCaT cells [8]; 24 h,> 1000 µM
same,IC50,HaCaT cells [8]; 48 h,> 1000 µM
"C=CCOC(Cn1ccnc1)c1ccc(Cl)cc1Cl (centres unmarked) [Imazalil, imazalil]",H-donor acceptor count,[9],2
same,pKa,[10],6.53
same,cell viability reduction,Caco-2 cells [1]; 24 h,94.13%
same,cell viability reduction,Caco-2 cells [1]; 48 h,98.06%
same,IC50,"Caco-2 cells [1]; Caco-2, 24 h exposure, mean ± S.D., read-out: IC50",254 ± 3.4 µM
same,IC50,"Caco-2 cells [1]; Caco-2, 48 h exposure, mean ± S.D., read-out: IC50",186 ± 2.27 µM
same,"viability at 48 h, 200 µM","[11]; Caco-2, 200 µM",39.7%
same,log Pow,[12],4.56
same,IC50,"RAW 264.7 cells; RAW264.7, RAW 264.7, 24 h exposure, mean ± S.D., read-out: IC50",31.3 ± 2.7 µM
same,IC50,"RAW 264.7 cells; RAW264.7, RAW 264.7, 48 h exposure, mean ± S.D., read-out: IC50",7.21 ± 4.5 µM
same,IC50,"A431 cells; A-431, A431, 24 h exposure, mean ± S.D., read-out: IC50",145 ± 1.7 µM
same,IC50,"A431 cells; A-431, A431, 48 h exposure, mean ± S.D., read-out: IC50",117 ± 6.5 µM
same,IC50,"Caco-2 cells [4]; conversion of µg/mL value, read-out: IC50",~100 µM
same,IC50,Caco-2 cells [4],30 µg/mL
same,concentration at which a significant reduction in cell viability was observed,HepG2 cells [6]; HepG2,50 µM
same,IC50,"HepG2 cells [6]; HepG2, 24 h exposure, mean ± S.D., read-out: IC50",93.7 ± 2.2 µM
same,IC50,"HepG2 cells [6]; HepG2, 48 h exposure, mean ± S.D., read-out: IC50",47.1 ± 0.5 µM
same,CYP3A4 inhibition,CYP3A4,inhibit CYP3A4
same,IC50,"SK-MEL-5 cells; SK-MEL-5, 24 h exposure, mean ± S.D., read-out: IC50",156 ± 9 µM
same,IC50,"SK-MEL-5 cells; SK-MEL-5, 48 h exposure, mean ± S.D., read-out: IC50",76.7 ± 1.8 µM
same,reduction in cell viability,"SK-MEL-5 cells; SK-MEL-5, 50 µM, 48 h",about 20%
same,"viability at 48 h, 50 µM",[13],~80%
same,IC50,"HaCaT cells [8]; 24 h exposure, mean ± S.D., read-out: IC50",174 ± 15.3 µM
same,IC50,"HaCaT cells [8]; 48 h exposure, mean ± S.D., read-out: IC50",120 ± 6.2 µM
"O=[N+]([O-])NC1=NCCN1Cc1ccc(Cl)nc1 [Imidacloprid, imidacloprid]",H-donor acceptor count,[9],4
same,IC50,"Caco-2 cells [1]; Caco-2, 24 h",> 1000 µM
same,IC50,"Caco-2 cells [1]; Caco-2, 48 h",832 ± 29.6 µM
same,"viability at 48 h, 600 µM","[11]; Caco-2, 600 µM, read-out: cell viability (% of control)",68.5%
same,"viability at 48 h, 1 mM","[11]; Caco-2, 1 mM, read-out: cell viability (% of control)",27.3%
same,log Pow,[12],0.57
same,concentration reducing cell viability below 50%,HaCaT cells [3]; 24 h,2350 µM
same,IC50,"RAW 264.7 cells; RAW264.7, 24 h",306 ± 22.4 µM
same,IC50,"RAW 264.7 cells; RAW264.7, 48 h",307 ± 22.1 µM
same,IC50,"A431 cells; A-431, 24 h",573 ± 10.4 µM
same,IC50,"A431 cells; A-431, 48 h",389 ± 9.2 µM
same,cell viability,"Caco-2 cells [4]; Caco-2, 96 h, 0.25 µg/mL",81%
same,concentrations cytotoxic / reducing cell viability,"Caco-2 cells [4]; Caco-2, 96 h, conversion of µg/mL value",> 0.98 µM
same,concentrations cytotoxic / reducing cell viability,"Caco-2 cells [4]; Caco-2, 96 h, formulation from Bayer",above 0.25 µg/mL
same,concentration range dose-dependently reducing cell viability,"HepG2 cells [5]; HepG2, 24 h",500 to 2000 µM
same,concentration range dose-dependently reducing cell viability,"HepG2 cells [5]; HepG2, 48 h",250 to 2000 µM
same,IC50,"HepG2 cells [6]; HepG2, 24 h",624 ± 24.3 µM
same,IC50,"HepG2 cells [6]; HepG2, 48 h",620 ± 10.6 µM
same,IC50,"SK-MEL-5 cells; SK-MEL-5, 24 h",507 ± 22.1 µM
same,IC50,"SK-MEL-5 cells; SK-MEL-5, 48 h",319 ± 11.5 µM
same,reduction in cell viability,"SK-MEL-5 cells; SK-MEL-5, 600 µM, 48 h",~ 88%
same,IC50,HaCaT cells [8]; 24 h,495 ± 19.4 µM
same,IC50,HaCaT cells [8]; 48 h,482 ± 12.9 µM
